According to patent publication US20030153622A1, “Ophthalmic solution and contact lens solution” (MENICON CO., LTD., priority 2001, published 2003):

Test: Characteristics of Component B (isoelectric point; pH and osmotic pressure in 0.1 mol/L aqueous solution)
Format: physicochemical
Conditions: for Isoelectric point: Component B; for Osmotic pressure / pH: Component B in 0.1 mol/L aqueous solution
Excerpt: As the Component A, polyhexamethylene biguamide (PHMB) was used. As the Component B (tonicity adjusting agent), different kinds of the amino-acid-based components having different isoelectric points as indicated in the following TABLE 2 were used. […] As the chelating agent, disodium salt of ethylenediamine tetraacetic acid (EDTA·2Na) was used.

Isoelectric point	Osmotic pressure [mOsm/kg]	pH	SMILES
6.00	104	6.05	CC(N)C(=O)O (racemic) [DL-alanine]
5.07	102	5.86	N[C@@H](CS)C(=O)O [L-cysteine]
5.83	105	5.87	O=C(O)[C@@H]1C[C@@H](O)CN1 [L-oxyproline]
5.48	105	6.14	N[C@@H](Cc1ccccc1)C(=O)O [L-phenylalanine]
6.30	104	5.90	O=C(O)[C@@H]1CCCN1 [L-proline]
5.68	105	6.12	N[C@@H](CO)C(=O)O [L-serine]
6.16	102	5.88	C[C@@H](O)[C@H](N)C(=O)O [L-threonine]
5.96	103	7.83	CC(C)[C@H](N)C(=O)O [L-valine]
4.50	106	5.19	NCCS(=O)(=O)O [taurine]
7.30	107	5.96	NCCCC(=O)O [γ-aminobutyric acid]
7.60	106	7.54	NCCCCCC(=O)O [ε-aminocaproic acid]

SMILES	Isoelectric point	Osmotic pressure [mOsm/kg]	pH
Cl.N[C@@H](Cc1c[nH]cn1)C(=O)O [L-histidine hydrochloride]	7.59	105	5.80
Cl.N=C(N)NCCC[C@H](N)C(=O)O [arginine hydrochloride]	10.76	181	5.62
N=C(N)NCCC[C@H](N)C(=O)O [arginine]	10.76	100	11.20
Cl.NCCCC[C@H](N)C(=O)O [lysine hydrochloride]	9.74	105	5.91
